Results as given in PubChem BioAssay (NCI).
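Dose response: 5 concentrations. Exposure: 48 h. Format: 96-well plates. Endpoint: linear interpolation; highest concentration if not reached. GI50 = concentration required for 50% inhibition of growth. At the TGI there is no net growth.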

How the values were obtained:
Assay in all cases: NCI tumour cell line growth inhibition, 48 h
LXFL 529 NSCLC = test system: LXFL 529 NSCLC
DMS 273 small cell lung = test system: DMS 273 small cell lung
KM20L2 colon = test system: KM20L2 colon
SNB-78 CNS = test system: SNB-78 CNS
XF 498 CNS = test system: XF 498 CNS
HOP-18 NSCLC = test system: HOP-18 NSCLC
DLD-1 colon = test system: DLD-1 colon
P388/ADR leukemia = test system: P388/ADR leukemia
SN12K1 renal = test system: SN12K1 renal
P388 leukemia = test system: P388 leukemia
RXF-631 renal = test system: RXF-631 renal

Compound | TGI (LXFL 529 NSCLC) [µM] | TGI (DMS 273 small cell lung) [µM] | TGI (KM20L2 colon) [µM] | TGI (SNB-78 CNS) [µM] | TGI (XF 498 CNS) [µM] | TGI (HOP-18 NSCLC) [µM] | TGI (DLD-1 colon) [µM] | GI50 (DMS 273 small cell lung) [µM] | GI50 (KM20L2 colon) [µM] | TGI (P388/ADR leukemia) [µM] | GI50 (SNB-78 CNS) [µM] | TGI (SN12K1 renal) [µM] | TGI (P388 leukemia) [µM] | GI50 (XF 498 CNS) [µM] | TGI (RXF-631 renal) [µM] | GI50 (DLD-1 colon) [µM]
Cc1ccc(-c2cc(-c3ccco3)nc(N)n2)o1 | > 100 | > 100 | > 100 | > 100 | > 100 | – | – | – | – | – | – | – | – | – | – | –
Oc1c(Cl)c2nccnc2c2ccccc12 | > 100 | > 100 | > 100 | > 100 | > 100 | > 100 | > 100 | – | – | – | – | – | – | – | – | –
O=c1[nH]cnc2c1nnn2CCCn1nnc2c(=O)[nH]cnc21 | > 100 | > 100 | > 100 | > 100 | > 100 | > 100 | > 100 | – | – | – | – | – | – | – | – | –
CN(C)[C@@H]1C(=O)C(C(N)=O)=C(O)[C@@]2(O)C(=O)C3=C(O)c4c(O)cccc4C[C@H]3C[C@@H]12 | 3.88 | – | 6.18 | – | – | 3.56 | 10.8 | – | – | – | – | – | – | – | – | –
COC(=O)/C(=C/c1ccc(OC)cc1)C(C(=O)O)=C(C)C | > 100 | > 100 | > 100 | > 100 | – | > 100 | > 100 | – | – | – | – | – | – | – | – | –
c1cnc2c(c1)-n1cccc1C1(CCOCC1)NN2 | > 100 | > 100 | > 100 | – | > 100 | > 100 | > 100 | – | – | – | – | – | – | – | – | –
C=C1CC2CC[C@@]34C[C@@H]5O[C@@H]6C(O[C@H]7CC[C@H](CC(=O)OC8[C@@H](C)C9OC%10C[C@]%11(C[C@@H]%12O[C@@]%13(C[C@@H](C)[C@@H]%12O%11)C[C@H](C)[C@@H]%11OC%12CC(C(O)CO)OC%12C[C@@H]%11O%13)OC%10CC9O[C@H]8C[C@H]8O[C@@H](CC[C@@H]1O2)C[C@@H](C)C8=C)O[C@@H]7[C@@H]6O3)C5O4 (some centres not stated) | – | < 0.000148 | – | 1.32 | – | > 1.48 | > 1.48 | < 0.000148 | < 0.000148 | 0.13 | < 0.000148 | 0.0162 | 0.0156 | < 0.000148 | 0.0034 | < 0.000148
O=C(NCCNCCO)N/N=C/c1cccc([N+](=O)[O-])c1 | > 100 | > 100 | > 100 | > 100 | – | > 100 | > 100 | – | – | – | – | – | – | – | – | –
C=CCN1C(=O)CS/C1=N\NC(=O)c1c(C)nc2sccn12 | > 100 | > 100 | > 100 | – | > 100 | > 100 | > 100 | – | – | – | – | – | – | – | > 100 | –
C=C/C(C)=C/[C@H](C)C(=O)C[C@H](O)CC1CC(=O)NC(=O)C1 | – | > 100 | > 100 | > 100 | 9.91 | > 93.6 | > 100 | – | – | > 100 | – | > 100 | > 100 | – | – | –
COC1/C=C\C=C(/C)C(=O)NC2=CC(=O)C(NCCCl)=C(CC(C)CC(OC)C(O)C(C)/C=C(/C)C1OC(N)=O)C2=O (configuration not stated) | 13.9 | 1.1 | 0.385 | 19.2 | 8.85 | 1.72 | 11.6 | – | – | – | – | – | – | – | – | –
O=C(CCN1CCCCC1CCO)Nc1ccc2c(c1)C(=O)c1ccc(NC(=O)CCN3CCCCC3CCO)cc1C2=O (configuration not stated) | 5.65 | 12.5 | 38 | 20.1 | – | 8.41 | 14.9 | – | – | – | – | – | – | – | – | –
CC1=C/C(=C(\c2ccc(N(C)C)cc2)c2ccc([N+](C)(C)C)cc2)C=CC1=[N+](C)C | 22.1 | 18.2 | 32.8 | 53.5 | 10.1 | – | 45.3 | – | – | – | – | – | – | – | 21.4 | –
COc1cc2c(cc1O)[C@H](C)C(c1ccc(Cl)cc1)O2 (some centres not stated) | 34.7 | 34.5 | 66.2 | > 100 | 29.4 | > 100 | 79.6 | – | – | – | – | – | – | – | 50.5 | –
On1c(-c2ccccc2)c(-c2c(-c3ccccc3)n(O)c3ccccc23)c2ccccc21 | 20 | > 100 | – | > 100 | 71 | 86.3 | > 100 | – | – | – | – | – | – | – | – | –
c1ccc2[nH]c(-c3nc4ccccc4o3)nc2c1 | > 100 | > 100 | > 100 | > 100 | > 100 | – | > 100 | – | – | – | – | – | – | – | – | –
CS(=O)(=O)NNS(=O)(=O)c1ccc(Br)cc1 | > 100 | > 100 | > 100 | > 100 | > 100 | > 100 | > 100 | – | – | – | – | – | – | – | – | –
